What was measured:
B. subtilis 168 = experiment: Acute growth retardation / physiologically effective concentration; format: cell-based; conditions: exponentially growing B. subtilis
Source text: The mechanisms of action in Gram-positive bacteria were further examined in the model bacterium B. subtilis. The study of the mechanism of action of a drug requires live cells under antibiotic stress. A 30–50% growth inhibition upon treatment, triggers a stress response in the bacterial cell while allowing cell proliferation to progress at a level sufficient to study the effect of the compound. The lowest concentration at which this effect was observed, was termed the physiologically effective concentration (PEC). […] The acute effect of different antibiotic concentrations on exponentially growing bacterial cultures were tested to identify the PEC (Fig. 3B–D). […] The presence of cationic lipophilic moieties possibly result in higher accumulation in the membrane region leading to growth inhibition at lower concentrations. […]
(§1) Determination of Physiologically Effective Concentration7
Overnight cultures of B. subtilis 168 were grown in 50 mL flasks with 10 mL of media. Upon growing to mid-log phase (an OD500 between 0.5 and 1), bacteria was inoculated in 100mL BMM in a 500 ml flask. When the cultures reach an OD500 of 0.35, the bacteria is aliquoted into separate conicals (50 mL) with 5 ml and compounds are added. The O.D. of the solutions are recorded every 30 minutes. The concentration which retards the growth of bacteria was selected as the PEC. The experiments were performed two times independently and the images are representative of results from two independent experiments. The experiment was done together with the compound published in (J. Med. Chem. 64, 2021, 10185) and therefore the graph for vancomycin is the same. […]
Overnight bacterial cultures were inoculated in BMM and allowed to grow to an OD 500 of 0.35. 200 µL of the bacterial culture were incubated with compounds at 37 ̊C for 15 minutes. […]
BAC Light assay or pore formation assay
0.35. 500 µL of the bacteria was then incubated with the compounds at their respective PECSs for 10 mins in the same media at 37 ̊C. The compound was then centrifuged at 13200 rpm and […]

B. subtilis = experiment: Cell wall biosynthesis inhibition assay (bubble assay); format: cell-based; conditions: treatment at PEC
Protocol: To further study the mechanisms contributing to the growth retardation, microscopic studies were carried out upon treatment of B. subtilis with compounds. Upon inhibition of cell wall biosynthesis, holes are formed in the peptidoglycan layer where new cell wall material is no longer incorporated. The cytoplasmic membrane extrudes out of these perforations, appearing as bubbles on the cell surface when treated with a 1 : 3 mixture of acetic acid and methanol.[30] […]
and the untreated control were carefully removed from the well, washed with 0.9 % saline, and placed on glass slides. The biofilms were then stained with 10 μL of SYTO9 (60μM) and imaged using a Zeiss 510 Meta confocal laser-scanning microscope. The orthogonal projections of the images were processed with LSM 5 Image examiner. The experiment was performed three times independently and the image provided is representative of these.
Determination of MIC against B. subtilis
Overnight cultures of B. subtilis 168 were grown in 50 mL flasks in 5 mL BMM media. The bacteria in the mid-log phase were then incubated with compounds for 18 h at 37 ̊C in BMM media. The MIC was determined as the lowest concentration at which no visible bacterial OD […]
as §1
Overnight cultures of B. subtilis 168 were grown in 50 mL flasks with 10 mL of media. Upon growing to mid-log phase (an OD500 between 0.5 and 1), bacteria was inoculated in 100mL BMM in a 500 ml flask. When the cultures reach an OD500 of 0.35, the bacteria is aliquoted into separate conicals (50 mL) with 5 ml and compounds are added. The O.D. of the solutions are recorded every 30 minutes. The concentration which retards the growth of bacteria was selected as the PEC. The experiments were performed two times independently and the images are representative of results from two independent experiments. The experiment was done together with the compound published in (J. Med. Chem. 64, 2021, 10185) and therefore the graph for vancomycin is the same.
Cell wall biosynthesis inhibition assay or Bubble assay […]

planktonic cells = experiment: Viability of planktonic cells post-treatment in HEPES-glucose; format: cell-based
Protocol: To confirm that membrane perturbation contributed to cell death, the bacterial viability was evaluated under conditions similar to the mechanistic studies. […] The number of viable cells was lower upon treatment with VanQAmC10 (8) than when treated with VanQbiph (4) at the same concentration. […] The stronger membrane–perturbation properties of VanQAmC10 (8) therefore contribute to higher activity against both exponentially growing and stationary phase bacteria.

[1] = test system: exponential growth phase MRSA; experiment: Time-kill kinetics, exponentially growing MRSA; format: cell-based, S. aureus; conditions: for time to complete eradication: exponentially growing MRSA; for minimum bactericidal concentration (MBC): log-phase MRSA
Protocol: To examine the antibacterial properties of the two leads, VanQbiph (4) and VanQAmC10 (8), the kinetics of bactericidal activity against exponentially growing, log-phase cells of MRSA was evaluated (Fig. 1B). The minimum bactericidal concentration (MBC) of VanQbiph (4) and VanQAmC10 (8) was at 2×MIC. […]
Time-kill kinetics assay 4
The bactericidal activity of the compounds was evaluated with the time kill kinetics assay.
MRSA ATCC 33591 cells were cultured in nutrient media at 37°C for 6 h. VanQAmC 10, VanQbiph, and vancomycin was added to the bacterial solution (~1.8×10^5 CFU/mL) with the working concentration of 25 μM. This was incubated at 37°C. At different time intervals (0, 1, 2, 3, 6 and 24 h) 20 μL of aliquots from that solution were serially diluted 10 -fold in 0.9 % saline. Then from the dilutions, 20 μL was plated on yeast -dextrose agar plates and incubated at 37°C for 24 h. The bacterial colonies were counted and results are represented in logarithmic scale, i.e. log10 (CFU/mL). […]

**Q.** Which results are given for CCCCCCCCCCNC(=O)C[N+](C)(C)CCCNC(=O)C1NC(=O)C2NC(=O)C(NC(=O)C3NC(=O)C(CC(N)=O)NC(=O)C(NC(=O)C(CC(C)C)NC)C(O)c4ccc(c(Cl)c4)Oc4cc3cc(c4OC3OC(CO)C(O)C(O)C3OC3CC(C)(N)C(O)C(C)O3)Oc3ccc(cc3Cl)C2O)c2ccc(O)c(c2)-c2c(O)cc(O)cc21 (stereo not shown) [VanQAmC10 (8)]?
**A.** concentration showing growth retardation (inhibitory effect from) (B. subtilis 168): 0.125 µM; cell wall biosynthesis inhibition (bubbles after acetic acid/methanol fixation) (B. subtilis): showed bubbles on the surface; reduction in viable cells (planktonic cells; 5 μM): 2 log CFU mL^−1; reduction in viable cells (planktonic cells; 10 μM): 4 log CFU mL^−1; time to complete eradication ([1]; 8×MIC): ≤ 6 h; minimum bactericidal concentration (MBC) [1]: 2 ×MIC

**Q.** CN[C@H](CC(C)C)C(=O)N[C@H]1C(=O)N[C@@H](CC(N)=O)C(=O)N[C@H]2C(=O)N[C@H]3C(=O)N[C@H](C(=O)N[C@H](C(=O)O)c4cc(O)cc(O)c4-c4cc3ccc4O)[C@H](O)c3ccc(c(Cl)c3)Oc3cc2cc(c3O[C@@H]2O[C@H](CO)[C@@H](O)[C@H](O)[C@H]2O[C@H]2C[C@](C)(N)[C@H](O)[C@H](C)O2)Oc2ccc(cc2Cl)[C@H]1O [Vancomycin, reference compound] was tested. Which “concentration showing growth retardation (inhibitory effect from)” value (B. subtilis 168) did it give?
**A.** The value was 0.4 µM.

**Q.** What about the “cell wall biosynthesis inhibition (bubbles after acetic acid/methanol fixation)” value (B. subtilis) of the same molecule?
**A.** The value was “showed bubbles on the surface”.

**Q.** What about the “effect on viable cells” value (planktonic cells; 40 μM) of the same molecule?
**A.** Its value is “did not reduce the viability of bacteria”.

**Q.** What about the “time to complete eradication” value ([1]; 2×MIC) of the same molecule?
**A.** The value was 24 h.

**Q.** Which “concentration showing growth retardation (inhibitory effect from)” value (B. subtilis 168) does the source give for CNC(CC(C)C)C(=O)NC1C(=O)NC(CC(N)=O)C(=O)NC2C(=O)NC3C(=O)NC(C(=O)NC(C(=O)NCCC[N+](C)(C)Cc4ccc(-c5ccccc5)cc4)c4cc(O)cc(O)c4-c4cc3ccc4O)C(O)c3ccc(c(Cl)c3)Oc3cc2cc(c3OC2OC(CO)C(O)C(O)C2OC2CC(C)(N)C(O)C(C)O2)Oc2ccc(cc2Cl)C1O (stereo not shown) [VanQbiph (4)] here?
**A.** Its value is 0.2 µM.

**Q.** What about the “cell wall biosynthesis inhibition (bubbles after acetic acid/methanol fixation)” value (B. subtilis) of the same molecule?
**A.** Its value is “showed bubbles on the surface”.

**Q.** And the “reduction in viable cells” value (planktonic cells; 5 μM)?
**A.** Its value is 0.8 log CFU mL^−1.

**Q.** What about the “reduction in viable cells” value (planktonic cells; 10 μM) of the same molecule?
**A.** The value was 2.2 log CFU mL^−1.

**Q.** What about the “time to complete eradication” value ([1]; 8×MIC) of the same molecule?
**A.** Its value is 24 h.

**Q.** And the “minimum bactericidal concentration (MBC)” value [1]?
**A.** The value was 2 ×MIC.

From PMC9977398, “Next-generation membrane-active glycopeptide antibiotics that also inhibit bacterial cell division” (Chemical Science, 2023)
